Each structure is given as a SMILES string. pKd: −log10 of the molar value. Read-outs that look alike come from different tables or passages of the source. Where a SMILES comes first, the peptide text is derived from it. Bridges are numbered along the chain shown (N, C = ends). [ ]: non-standard residue; d: D form. NMePhe(3-Cl) = CN[C@@H](Cc1cccc(Cl)c1)C(=O)O; NMeW = CN[C@@H](Cc1c[nH]c2ccccc12)C(=O)O; Phe(4-Cl) = N[C@@H](Cc1ccc(Cl)cc1)C(=O)O; Lys(N3) = [N-]=[N+]=NCCCC[C@H](N)C(=O)O; NMeY = CN[C@@H](Cc1ccc(O)cc1)C(=O)O; NMeF = CN[C@@H](Cc1ccccc1)C(=O)O; PEG4 = NCCOCCOCCOCCOCCC(=O)O; Dab = NCC[C@H](N)C(=O)O

In US20230203098A1, “HUMAN TRANSFERRIN RECEPTOR BINDING PEPTIDE” (priority 2020, published 2023) one finds Kd data, which are given here for 13 compounds.

The target of this experiment is transferrin receptor (hTfR) (Homo sapiens, UniProt P02786). Nature of the experiment: Intermolecular interaction evaluation test between transferrin receptor (hTfR) and peptide by surface plasmon resonance (SPR). Type of experiment: binding. A digest of the protocol: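 hTfR captured on Ni-NTA chip then amine-coupled; peptides run single-cycle kinetics at 5–100 nM in 10 mM HEPES pH 8.0, 150 mM NaCl, 0.05% Tween 20, 0.1% BSA, 1.0% DMSO. KD from least-squares curve fitting of sensorgrams.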
Sequence of transferrin receptor (hTfR) (P02786 whole entry): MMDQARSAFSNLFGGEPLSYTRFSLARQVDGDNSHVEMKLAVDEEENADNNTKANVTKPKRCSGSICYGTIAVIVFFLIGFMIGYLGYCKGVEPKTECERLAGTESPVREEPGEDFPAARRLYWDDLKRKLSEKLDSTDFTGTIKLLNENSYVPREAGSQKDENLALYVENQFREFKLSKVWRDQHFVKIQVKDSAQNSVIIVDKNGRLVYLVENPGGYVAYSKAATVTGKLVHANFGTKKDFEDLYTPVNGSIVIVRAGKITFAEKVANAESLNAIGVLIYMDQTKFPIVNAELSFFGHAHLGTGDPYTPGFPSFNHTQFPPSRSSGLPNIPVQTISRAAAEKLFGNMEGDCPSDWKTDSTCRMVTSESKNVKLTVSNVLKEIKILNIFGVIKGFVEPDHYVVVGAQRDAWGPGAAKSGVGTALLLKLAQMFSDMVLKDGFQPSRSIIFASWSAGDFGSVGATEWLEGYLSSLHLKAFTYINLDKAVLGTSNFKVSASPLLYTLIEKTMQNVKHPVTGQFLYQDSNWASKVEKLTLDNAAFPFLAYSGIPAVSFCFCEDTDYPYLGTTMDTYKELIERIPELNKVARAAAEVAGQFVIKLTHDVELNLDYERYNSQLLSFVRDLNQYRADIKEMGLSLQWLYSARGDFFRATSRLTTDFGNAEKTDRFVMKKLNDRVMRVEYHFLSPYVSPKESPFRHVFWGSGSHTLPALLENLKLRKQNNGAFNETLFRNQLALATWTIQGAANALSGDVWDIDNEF
A general note: SPR reads the build-up and loss of mass on a sensor chip optically.

The mark [1] stands for this setting: surface plasmon resonance, hTfR, read-out: KD value for hTfR by SPR (class symbol).

The term pKd denotes the Kd on a negative log10 scale, so that one unit is a factor of ten. As to `CC[C@H](C)[C@@H]1NC(=O)[C@H](Cc2ccc(OC)cc2)NC(=O)[C@H](Cc2ccc(O)cc2)NC(=O)[C@H](CC(N)=O)NC(=O)[C@H](Cc2c[nH]c3ccccc23)N(C)C(=O)[C@H](C(C)C)NC(=O)[C@H](Cc2cccc(Cl)c2)N(C)C(=O)[C@H](C(C)C)NC(=O)[C@H](C)NC(=O)CSC[C@@H](C(N)=O)NC(=O)[C@H](Cc2ccc(O)cc2)N(C)C(=O)[C@H](Cc2ccc(Cl)cc2)NC(=O)[C@@H](CCCNC(=N)N)NC(=O)[C@H](CCCNC(=N)N)NC(=O)[C@H]([C@@H](C)CC)NC1=O` [compound 392], the negative-log Kd (pKd) under setting [1] is 7.00 to 9.00. For `CC[C@H](C)[C@@H]1NC(=O)[C@H](Cc2ccc(OC)cc2)NC(=O)[C@H](Cc2ccc(O)cc2)NC(=O)[C@H](CC(N)=O)NC(=O)[C@H](Cc2c[nH]c3ccccc23)N(C)C(=O)[C@H](C(C)C)NC(=O)[C@H](Cc2cccc(Cl)c2)N(C)C(=O)[C@H](C(C)C)NC(=O)[C@H](C)NC(=O)CSC[C@@H](C(=O)NCC(=O)NCC(=O)NCC(=O)NCC(=O)N[C@@H](CO)C(=O)N[C@@H](CO)C(=O)N[C@@H](CS)C(N)=O)NC(=O)[C@H](Cc2ccc(O)cc2)N(C)C(=O)[C@H](Cc2ccccc2)NC(=O)[C@@H](CCCCN)NC(=O)[C@H](CCCNC(=N)N)NC(=O)[C@H]([C@@H](C)CC)NC1=O` [compound 407], the pKd under setting [1] was 7.00 to 9.00.

As to `CC[C@H](C)[C@@H]1NC(=O)[C@H](Cc2ccc(O)cc2)NC(=O)[C@H](Cc2ccc(Cl)cc2)NC(=O)[C@H](CC(N)=O)NC(=O)[C@H](Cc2c[nH]c3ccccc23)NC(=O)[C@H](C(C)C)NC(=O)[C@H](Cc2ccccc2)N(C)C(=O)[C@H](C(C)C)NC(=O)[C@H](C)NC(=O)CSC[C@@H](C(=O)NCC(=O)N[C@@H](CCCCN=[N+]=[N-])C(N)=O)NC(=O)[C@H](Cc2ccc(O)cc2)N(C)C(=O)[C@H](Cc2ccc(O)cc2)NC(=O)[C@H](CCCNC(=N)N)NC(=O)[C@H](CCCNC(=N)N)NC(=O)[C@H]([C@@H](C)CC)NC1=O` [compound 277] ({CH2CO}-AV[NMeF]VWN[Phe(4-Cl)]YIIRRY[NMeY]CG[Lys(N3)]-NH2; thioether N-15), the negative-log Kd (pKd) (binding to hTfR by SPR, Table 2 peptides, read-out: KD value (SPR) class) is 6.00 to 7.00.

As for `CC[C@H](C)[C@@H]1NC(=O)[C@H](Cc2ccc(O)cc2)NC(=O)[C@H](Cc2ccc(O)cc2)NC(=O)[C@H](CC(N)=O)NC(=O)[C@H](Cc2c[nH]c3ccccc23)NC(=O)[C@H](C(C)C)NC(=O)[C@H](Cc2ccccc2)N(C)C(=O)[C@H](C(C)C)NC(=O)[C@H](C)NC(=O)CSC[C@@H](C(=O)NCC(=O)NCC(=O)N[C@@H](CO)C(=O)NCC(=O)N[C@@H](CO)C(=O)N[C@@H](CO)C(=O)NCC(=O)NCC(=O)N[C@@H](CO)C(=O)NCC(=O)N[C@@H](CO)C(=O)N[C@@H](CO)C(=O)N[C@@H](CCCCNC(=O)C2CCC(CN3C(=O)C=CC3=O)CC2)C(N)=O)NC(=O)[C@H](Cc2ccc(O)cc2)N(C)C(=O)[C@H](Cc2ccc(O)cc2)NC(=O)[C@H](CCCNC(=N)N)NC(=O)[C@H](CCCNC(=N)N)NC(=O)[C@H]([C@@H](C)CC)NC1=O` (stereo partly shown) [compound 196], where the note is “hTfR binding by SPR, hTfR No. 894 variant peptides, linker-added peptides and payload conjugates (Table 2), read-out: KD value obtained from the SPR measurement”, the pKd is 7.00 to 9.00.

For `CC[C@H](C)[C@@H]1NC(=O)[C@H](Cc2ccc(OC)cc2)NC(=O)[C@H](Cc2ccc(O)cc2)NC(=O)[C@H](CC(N)=O)NC(=O)[C@H](Cc2c[nH]c3ccccc23)N(C)C(=O)[C@H](C(C)C)NC(=O)[C@H](Cc2cccc(Cl)c2)N(C)C(=O)[C@H](C(C)C)NC(=O)[C@H](C)NC(=O)CSC[C@@H](C(=O)NCCOCCOCCOCCOCCC(N)=O)NC(=O)[C@H](Cc2ccc(O)cc2)N(C)C(=O)[C@H](Cc2ccccc2)NC(=O)[C@@H](CCCNC(=N)N)NC(=O)[C@H](CCCNC(=N)N)NC(=O)[C@H]([C@@H](C)CC)NC1=O` [compound 400], the negative-log Kd (pKd) under setting [1] is 7.00 to 9.00. With `CC[C@H](C)[C@@H]1NC(=O)[C@H](Cc2ccc(OC)cc2)NC(=O)[C@H](Cc2ccc(O)cc2)NC(=O)[C@H](CC(N)=O)NC(=O)[C@H](Cc2c[nH]c3ccccc23)N(C)C(=O)[C@H](C(C)C)NC(=O)[C@H](Cc2cccc(Cl)c2)N(C)C(=O)[C@H](CCC(=O)O)NC(=O)[C@H](C)NC(=O)CSC[C@@H](C(=O)N[C@H](CCC(=O)O)C(=O)NCC(=O)NCC(=O)NCC(=O)N[C@@H](CO)C(=O)N[C@@H](CO)C(=O)N[C@@H](CS)C(N)=O)NC(=O)[C@H](Cc2ccc(O)cc2)N(C)C(=O)[C@H](Cc2ccccc2)NC(=O)[C@@H](CCCNC(=N)N)NC(=O)[C@H](CCCCN)NC(=O)[C@H]([C@@H](C)CC)NC1=O` [compound 230] ({CH2CO}-AE[NMePhe(3-Cl)]V[NMeW]NYY(Me)IIK[dR]F[NMeY]C[dE]GGGSSC-NH2; thioether N-15), the pKd (SPR, peptides, linker-added peptides and FITC conjugates, Patent ID 203-230, read-out: KD) was 7.00 to 9.00.

As for `CC[C@H](C)[C@@H]1NC(=O)[C@H](Cc2ccc(OC)cc2)NC(=O)[C@H](Cc2ccc(O)cc2)NC(=O)[C@H](CC(N)=O)NC(=O)[C@H](Cc2c[nH]c3ccccc23)N(C)C(=O)[C@H](C(C)C)NC(=O)[C@H](Cc2cccc(Cl)c2)N(C)C(=O)[C@H](C(C)C)NC(=O)[C@H](C)NC(=O)CSC[C@@H](C(=O)NCCOCCOCCOCCOCCC(N)=O)NC(=O)[C@H](Cc2ccc(O)cc2)N(C)C(=O)[C@H](Cc2ccccc2)NC(=O)[C@@H](CCCNC(=N)N)NC(=O)[C@H](CCCNC(=N)N)NC(=O)[C@H](CCN)NC1=O` [compound 337] ({CH2CO}-AV[NMePhe(3-Cl)]V[NMeW]NYY(Me)I[Dab]R[dR]F[NMeY]C[PEG4]-NH2; thioether N-15), for the setting “surface plasmon resonance, peptide vs hTfR, read-out: KD value, hTfR binding by SPR (class symbol)”, the negative-log Kd (pKd) is 7.00 to 9.00. As to `CC[C@H](C)[C@@H]1NC(=O)[C@H](Cc2ccc(O)cc2)NC(=O)[C@H](Cc2ccc(O)cc2)NC(=O)[C@H](CC(N)=O)NC(=O)[C@H](Cc2c[nH]c3ccccc23)NC(=O)[C@H](C(C)C)NC(=O)[C@H](Cc2ccccc2)NC(=O)[C@H](C(C)C)NC(=O)[C@H](C)NC(=O)CSC[C@@H](C(=O)NCCOCCOCCOCCOCCOCCOCCOCCOCCOCCOCCOCCOCCC(=O)N[C@@H](CCCCNC(=O)c2ccc(-c3c4ccc(=O)cc-4oc4cc(O)ccc34)c(C(=O)O)c2)C(N)=O)NC(=O)[C@H](Cc2ccc(O)cc2)N(C)C(=O)[C@H](Cc2ccc(O)cc2)NC(=O)[C@H](CCCNC(=N)N)NC(=O)[C@H](CCCNC(=N)N)NC(=O)[C@H]([C@@H](C)CC)NC1=O` [compound 147], the pKd (SPR, linker and payload (FITC, VivoTag) conjugates, read-out: KD) is > 9.00. On to `CC[C@H](C)[C@@H]1NC(=O)[C@H](Cc2ccc(OC)cc2)NC(=O)[C@H](Cc2ccc(O)cc2)NC(=O)[C@H](CC(N)=O)NC(=O)[C@H](Cc2c[nH]c3ccccc23)N(C)C(=O)[C@H](C(C)C)NC(=O)[C@H](Cc2cccc(Cl)c2)N(C)C(=O)[C@H](C(C)C)NC(=O)[C@H](C)NC(=O)CSC[C@@H](C(N)=O)NC(=O)[C@H](Cc2ccc(O)cc2)N(C)C(=O)[C@H](Cc2ccccc2)NC(=O)[C@@H](CCCNC(=N)N)NC(=O)[C@H](CCC(=O)NCCOCCOCCOCCOCCOCCOCCOCCOC)NC(=O)[C@H]([C@@H](C)CC)NC1=O` [compound 363], for which the pKd under setting [1] is 7.00 to 9.00. For `CC[C@H](C)[C@@H]1NC(=O)[C@H](Cc2ccc(O)cc2)NC(=O)[C@H](Cc2ccc(O)cc2)NC(=O)[C@H](CC(N)=O)NC(=O)[C@H](Cc2c[nH]c3ccccc23)NC(=O)[C@H](C(C)C)NC(=O)[C@H](Cc2ccccc2)N(C)C(=O)[C@H](C(C)C)NC(=O)[C@H](C)NC(=O)CSC[C@@H](C(=O)NCC(=O)NCCOCCOCCOCCOCCOCCOCCOCCOCCOCCOCCOCCOCCC(=O)N[C@@H](CCCCN=[N+]=[N-])C(N)=O)NC(=O)[C@H](Cc2ccc(O)cc2)N(C)C(=O)[C@H](Cc2ccc(O)cc2)NC(=O)[C@H](CCCNC(=N)N)NC(=O)[C@H](CCCNC(=N)N)NC(=O)[C@H]([C@@H](C)CC)NC1=O` [compound 501], under “SPR, hTfR, class symbols A-D, read-out: KD (column without head, continuation of the table series)”, the pKd was 7.00 to 9.00. Turning to `CC[C@H](C)[C@@H]1NC(=O)[C@H](Cc2ccc(OC)cc2)NC(=O)[C@H](Cc2ccc(O)cc2)NC(=O)[C@H](CC(N)=O)NC(=O)[C@H](Cc2c[nH]c3ccccc23)N(C)C(=O)[C@H](C(C)C)NC(=O)[C@H](Cc2cccc(Cl)c2)N(C)C(=O)[C@H](C(C)C)NC(=O)[C@H](C)NC(=O)CSC[C@@H](C(N)=O)NC(=O)[C@H](Cc2ccc(O)cc2)N(C)C(=O)[C@H](Cc2ccccc2)NC(=O)[C@H](CCCNC(=N)N)NC(=O)[C@H](CCCNC(=N)N)NC(=O)[C@H]([C@@H](C)CC)NC1=O` [compound 386], the pKd under setting [1] is 7.00 to 9.00. In the case of `CC[C@H](C)[C@@H]1NC(=O)[C@H](Cc2ccc(O)cc2)NC(=O)[C@H](Cc2ccc(O)cc2)NC(=O)[C@H](CC(N)=O)NC(=O)[C@H](Cc2c[nH]c3ccccc23)NC(=O)[C@H](C(C)C)NC(=O)[C@H](Cc2ccccc2)N(C)C(=O)[C@H](C(C)C)NC(=O)[C@H](C)NC(=O)CSC[C@@H](C(=O)NCCOCCOCCOCCOCCOCCOCCOCCOCCOCCOCCOCCOCCC(N)=O)NC(=O)[C@H](Cc2ccc(O)cc2)N(C)C(=O)[C@H](Cc2ccc(O)cc2)NC(=O)[C@@H](CCCNC(=N)N)NC(=O)[C@H](CCCNC(=N)N)NC(=O)[C@H]([C@@H](C)CC)NC1=O` [compound 116], for the setting “SPR, hTfR No. 894 variants with PEG12c linker (Table 2), read-out: KD”, the pKd is 7.00 to 9.00. With `CC[C@H](C)[C@@H]1NC(=O)[C@H](Cc2ccc(O)cc2)NC(=O)[C@H](Cc2ccc(O)cc2)NC(=O)[C@H](CC(N)=O)NC(=O)[C@H](Cc2c[nH]c3ccccc23)NC(=O)[C@H](C(C)C)NC(=O)[C@H](Cc2ccccc2)N(C)C(=O)[C@H](C(C)C)NC(=O)[C@H](C)NC(=O)CSC[C@@H](C(=O)NCC(=O)N[C@H](CCC(=O)O)C(=O)N[C@H](CCC(=O)O)C(=O)NCC(=O)N[C@@H](CO)C(=O)N[C@@H](CO)C(=O)N[C@@H](CSCC(=O)NC)C(N)=O)NC(=O)[C@H](Cc2ccc(O)cc2)N(C)C(=O)[C@H](Cc2ccc(O)cc2)NC(=O)[C@H](CCCNC(=N)N)NC(=O)[C@H](CCCNC(=N)N)NC(=O)[C@H]([C@@H](C)CC)NC1=O` [compound 425], the pKd (surface plasmon resonance, peptide vs hTfR, read-out: KD value for hTfR by SPR (class symbol)) was 7.00 to 9.00.
